Experimental data from PubChem BioAssay (NCI).
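Growth conditions: 96-well plates. Treatment: test compound, 48 hours, 5 concentrations. Analysis: linear interpolation between bracketing concentrations; unreached endpoints set to highest concentration. GI50 = concentration required for 50% inhibition of growth. TGI: concentration producing complete growth inhibition.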

Assays:
Assay in all cases: inhibition of tumour cell growth, NCI panel, 48 h
CCRF-CEM leukemia = tested on: CCRF-CEM leukemia
TK-10 renal = tested on: TK-10 renal
SNB-19 CNS = tested on: SNB-19 CNS
SNB-75 CNS = tested on: SNB-75 CNS
NCI-H23 lung = tested on: NCI-H23 lung
KM12 colon = tested on: KM12 colon
OVCAR-4 ovarian = tested on: OVCAR-4 ovarian
MDA-MB-231 breast = tested on: MDA-MB-231 breast
MDA-MB-435 = tested on: MDA-MB-435
MCF7 breast = tested on: MCF7 breast

| SMILES | TGI (CCRF-CEM leukemia) [µM] | TGI (TK-10 renal) [µM] | TGI (SNB-19 CNS) [µM] | TGI (SNB-75 CNS) [µM] | TGI (NCI-H23 lung) [µM] | TGI (KM12 colon) [µM] | TGI (OVCAR-4 ovarian) [µM] | GI50 (MDA-MB-231 breast) [µM] | TGI (MDA-MB-231 breast) [µM] | GI50 (TK-10 renal) [µM] | GI50 (SNB-19 CNS) [µM] | GI50 (SNB-75 CNS) [µM] | GI50 (NCI-H23 lung) [µM] | GI50 (MDA-MB-435) [µM] | TGI (MDA-MB-435) [µM] | GI50 (MCF7 breast) [µM] | TGI (MCF7 breast) [µM] | GI50 (KM12 colon) [µM] | GI50 (OVCAR-4 ovarian) [µM] | GI50 (CCRF-CEM leukemia) [µM] |
| --- | --- | --- | --- | --- | --- | --- | --- | --- | --- | --- | --- | --- | --- | --- | --- | --- | --- | --- | --- | --- |
| CC(=O)Nc1c(Nc2ccccc2)[nH]c(C)nc1=S | > 100 | > 100 | > 100 | > 100 | > 100 | > 100 | > 100 |  |  |  |  |  |  |  |  |  |  |  |  |  |
| C[C@]12CC[C@H]3[C@@H](CC=C4C[C@@H](N5CCCC5)CC[C@@]43C)[C@@H]1C/C(=C\c1cccc(OCCN3CCOCC3)c1)[C@@H]2O |  | 46.7 | > 100 | 34.3 | 41.6 | > 100 | 55.2 | 2.24 | 5.37 | 4.15 | 4.41 | 14.6 | 13.3 | 3.64 | > 100 | 19.7 | 98.1 | 5.02 | 13.3 |  |
| COCN1COCN=C1NC#N |  | > 100 | > 100 | > 100 | > 100 | > 100 | > 100 |  |  |  |  |  |  |  |  |  |  |  |  |  |
| C[N+](C)(C)CC(=O)N/N=C(/C(=O)Nc1ccc(Br)cc1)C1C(=O)NC(=O)NC1=O | > 100 | > 100 | > 100 | > 100 | > 100 | > 100 | > 100 |  |  |  |  |  |  |  |  |  |  |  |  |  |
| COC(=O)N/N=C(\C)c1c(O)cc(C)oc1=O | > 100 | > 100 | > 100 | > 100 | > 100 | > 100 | > 100 |  |  |  |  |  |  |  |  |  |  |  |  |  |
| OC(COC(c1ccccc1)(c1ccccc1)c1ccccc1)C(O)CC1SCCS1 (stereo unspecified) | > 100 | 39.6 | 54.9 |  | 40 | 29.8 |  |  | 35.2 |  |  |  |  |  | 91.9 |  | 71.9 |  |  |  |
| CC1=C(/C=C/C(C)=C/C2CC(N(C)C)=CC(=O)O2)C(C)(C)CCC1 (stereo unspecified) | 22.3 | 27.5 | 28.6 | 32.4 | 27.8 | 31.2 | 31.7 |  |  |  |  |  |  |  |  |  |  |  |  |  |
| COC(=O)C1=C(O)[C@H](C(=O)OC)C2(O)C(C(=O)OC)[C@H](c3ccc(OC(=O)C(C)c4ccc(CC(C)C)cc4)cc3)C[C@@H]1[C@@H]2C(=O)OC (stereo partly specified) |  | > 50 | > 50 |  | 24.9 | > 50 | > 50 | 5.52 | 22.8 | 30.6 | 40 |  | 11.1 | 12.8 | 28.2 | 8.18 | > 50 | 40.3 | 11.7 |  |
| O=C([CH-]C(=O)c1ccccc1)c1ccccc1.[CH-]1CCCCC1.[CH-]1CCCCC1.[CH-]1CCCCC1.[Sn+4] |  | 26.1 | 18.4 | 21.3 | 20.3 | 24.2 |  |  |  | 12.1 | 5.43 | 7.09 | 6.06 |  |  |  |  | 10.8 |  |  |
| CC(=O)c1c2c(cc3c1CC1(C3)Cc3cc4c(c(C(C)=O)c3C1)CCC4)CCC2 | > 100 | > 100 | > 100 | > 100 | > 100 | > 100 | > 100 |  |  |  |  |  |  |  |  |  |  |  |  |  |
| CN(C)CCNC(=O)c1cccc2cc3c(Cl)cccc3nc12 |  | 7.66 | 7.32 | 8.37 | 3.23 | 7.28 | 8.15 |  |  |  |  |  |  |  |  |  |  |  |  |  |
| CCCCCCCCCCCCCC[N+](C)(C)CCCCCCCCCCCCCC |  | 7.03 | 10 |  | 6.13 |  |  |  |  | 2.53 | 2.38 |  | 2.12 |  |  |  |  |  |  |  |
| COC12C=C/C(=C(/C(=O)OCc3ccccn3)C(=O)CCCCCCCCC3(OC)C=C/C(=C(/C(=O)OCc4ccccn4)C(=O)CCCCCCCC1)O3)O2 |  | 4.19 | > 100 | 2.37 | 0.689 | 1.39 | 2.28 | 0.485 | > 100 | 1.69 | 1.43 | 0.827 | 0.249 | 0.209 | 0.48 |  |  | 0.354 | 0.332 |  |
| CC(=O)[O-].Cn1ccnc1CNCc1nccn1C.[Cu+2].[O-][Cl+3]([O-])([O-])[O-] | > 100 | > 100 | > 100 | > 100 | > 100 | > 100 | > 100 |  |  | > 100 | > 100 | > 100 | > 100 |  |  |  |  | > 100 | 3.1 | > 100 |
| Cc1csc2[n+]1-c1ccccc1N(C(=O)Nc1ccccc1)C(C)C2 (stereo unspecified) | 69.6 | > 100 | > 100 |  | > 100 | > 100 |  | 18.6 | 45.3 | > 100 | > 100 |  | 35.8 | > 100 | > 100 | 48.7 | > 100 | > 100 |  | 29.5 |
| CN(C)c1ccc2oc(=O)c3ccccc3c2c1 | > 100 | > 100 | 70.2 | 61.8 | 64.2 |  | > 100 |  | 82.9 |  |  |  |  |  | > 100 |  |  |  |  |  |
| COc1cc(/C=C/C(=O)/C=C/c2ccc(-n3ccnc3C)cc2)ccc1O | > 100 | 90.4 | 86.3 | > 100 | 5.5 | 4.25 | > 100 | 2.87 | 9.03 | 4.74 | 4.62 | 9.61 | 2.08 |  |  |  |  | 2.07 | 8.87 | 4.07 |
| O=C(O)[C@H](NS(=O)(=O)c1ccc(F)cc1)c1ccccc1 | > 100 | > 100 | > 100 | > 100 | > 100 |  | > 100 |  |  |  |  |  |  |  |  |  |  |  |  |  |
| CCOC(=O)C(=O)CC1=Nc2ccccc2SC(c2cccc(C)c2)C1 (stereo unspecified) | 63.1 |  | 34.6 | 38.7 | 32 | 30.9 | 32 |  |  |  |  |  |  |  |  |  |  |  |  |  |
| Cc1cccc(C)c1NC(=O)C1=NC(=S)NC(c2ccccc2)C1c1nc2ccccc2s1 (stereo unspecified) | > 100 | > 100 | > 100 | > 100 | > 100 | > 100 | > 100 |  |  |  |  |  |  |  |  |  |  |  |  |  |
| CCOP(=O)(OCC)C1CCCOC1=O (stereo unspecified) | > 100 | > 100 | > 100 | > 100 | > 100 | > 100 | > 100 |  |  |  |  |  |  |  |  |  |  |  |  |  |
